Key:
Format in all cases: in vivo
[1] = test system: Plasmodium chabaudi; assay: Progression of P. chabaudi infection (10^6 pRBC i.v.) in pantetheinase-sufficient B6 mice; details: Cys 60 mg/kg added to Art
Method: (§1) A/J and C57BL/6 (B6) mice were purchased from the Jackson Laboratories (Bar Harbor, Me.) and were housed at McGill University according to the guidelines of the Canadian Council on Animal Care. An LDH virus-free isolate of P. chabaudi AS was maintained by weekly passage in A/J mice. Mice were infected intravenously into the tail vein (i.v.) with 10^6 or 10^7 pRBC suspended in pyrogen-free saline. Following infection, the percentage of pRBC was determined daily on thin blood smears stained with Dif-Quik™ (Dade Behring, Newark, Del.), as described (Fortin A, et al. (2001) Proc Natl Acad Sci USA 98: 10793-10798).
(§2) Cysteamine hydrochloride (Sigma, Burlington ON) was prepared in PBS. Chloroquine hydrochloride, artesunate and dihydroartemisinin were provided by Dafra Pharmaceuticals; chloroquine was prepared in PBS, artesunate and DHA were prepared in 5% sodium bicarbonate and diluted in water to appropriate concentrations. All solutions were prepared fresh daily, filter sterilized and injections were performed intra-peritoneally (i.p) or subcutaneously (s.c.) for 4 days or according to treatment regimen. Mice were weighed prior to treatment to determine appropriate doses and injection volumes ranged from 100-400 μL per mouse. In the case of animals treated with two drugs, artemisinin derivatives were administered first (due to the short half life of cysteamine), followed by cysteamine 5-10 minutes later on alternate sides. Untreated control animals were injected with PBS alone.
To investigate whether the effects on parasite burden over the course of infection would also be observed with a pantetheinase-sufficient mouse strain, a similar experiment was performed using female B6 mice. Groups of mice were infected with 10^6 P. chabaudi pRBC i.v. and treated with PBS, 1 mg/kg or 30 mg/kg of Art, or 1 mg/kg or 30 mg/kg of Art plus 60 mg/kg of Cys for 4 days. […] As in A/J mice, the effect of Cys addition to 1 mg/kg of Art has a clear effect on early parasite replication at day 6 (FIG. 6B). […] B6 mice were able to completely clear parasite burdens and survive the infection, even in the control PBS-treated group.

[2] = test system: Plasmodium chabaudi; assay: 4-day test, P. chabaudi (10^7 pRBC i.v.) in pantetheinase-sufficient C57BL/6 mice, blood parasitemia days 4 and 5; details: cysteamine 170 mg/kg i.p. alone, days 0-3
Method: as §1, §2
(§3) Groups with normally distributed data points were compared using parametric unpaired t-tests, while groups with non-Gaussian distributions were compared using non-parametric Mann-Whitney tests. Survival differences were analyzed using the Log-Rank test. […] Standard error of percent inhibition was calculated from individual mice compared to the mean parasitemia level of the control group.
(§4) The effect of Cys on the potency and efficacy of the anti-malarial artemisinin derivatives was tested. […] Synergy (Tallarida R J (2001) J Pharmacol Exp Ther 298: 865-872) is defined as a total anti-malarial activity (reduction in blood parasitemia compared to untreated controls in a standard 4-day test) of the two compounds administered together being greater than the sum of the independent activities of the two compounds given alone. We tested combinations of Cys and either artesunate (ART) or dihydroartemisinin (DHA), the bioactive form of artemisinin. Pantetheinase-deficient mice were infected with P. chabaudi (10^7 pRBC, i.v.) and treated with Cys (170 mg/kg) and/or sub-optimal doses of ART (0.2 or 0.5 mg/kg) (FIG. 3A) or DHA (0.15 or 0.3 mg/kg) (FIG. 3B) from day 0-3 and parasitemia was monitored on days 4 and 5. […] Potentiation of the anti-malarial activity of ART (0.5 mg/kg) by Cys was also clearly evident in these C57BL/6 mice at both days 4 and 5 post-infection, with combined treatment causing a 65-71% reduction in parasitemia compared to PBS controls, greater than either compound tested alone (13-29%) (TABLE 1).

[3] = test system: Plasmodium chabaudi; assay: 4-day test, P. chabaudi (10^7 pRBC i.v.) in pantetheinase-deficient A/J mice, blood parasitemia days 4 and 5; details: A/J mice
Method: as §1, §2, §3, §4
It was subsequently examined whether Cys potentiation of ART was dose dependent. Initially, Cys doses of 60, 100, 140 and 180 mg/kg were tested with a sub-optimal ART dose of 0.2 mg/kg. The drugs were administered from day 0-3 post infection, parasitemia was counted at day 4 and day 5 and the percent inhibition was calculated compared to PBS-treated controls (FIG. 4A). At 0.2 mg/kg, ART alone inhibits parasitemia by ˜20% (day 4) and 40% (day 5) while inhibition by Cys alone was partially dose dependent (varying between 10% and 25%). […] It was also assessed whether Cys could potentiate low doses of artesunate which, given alone, have no significant effect on parasitemia. In this experiment, Cys (170 mg/kg) was administered in combination, or not, with increasing doses of ART (0.05, 0.1, 0.2, 0.4 mg/kg) in the same 4-day experimental protocol.

[4] = cysteamine 170 mg/kg i.p. alone, days 0-3

Compound: NCCS [Cysteamine]
- recrudescent parasitemia around day 14 [1]: eliminated the appearance of recrudescent parasitemia
- Inhibition of parasitemia Day 4 [2]: 13 % PBS control
- Inhibition of parasitemia Day 5 [2]: 25 % PBS control
- Inhibition of parasitemia Day 4 [3, 4]: 28 % PBS control
- Inhibition of parasitemia Day 5 [3, 4]: 23 % PBS control
- Cys doses as low as which show potentiation of the ART effect ([3]; lower Cys dose range (20, 40 and 60 mg/kg) with ART (FIG. 4B)): 20 to 40 mg/kg
